One block for each molecule: values may come before it.
Experiments:
[1] = target: Phosphatidylinositol 4,5-bisphosphate 3-kinase catalytic subunit beta isoform (Homo sapiens) (UniProt P42338); test: Selectivity interaction (Ambit KINOMEscan and KiNATiv profiling in Jurkat cells) EUB0000090b PIK3CB; type: cell-based; settings: at 1 µM
[2] = target: T1, Dual specificity mitogen-activated protein kinase kinase 5 (Homo sapiens) (UniProt Q13163); test: Selectivity interaction (ActivX KiNativ screen (kinase selectivity in THP-1 cell lysates)) EUB0000639a MAP2K5; type: subcellular; settings: lysate
T1 sequence (whole entry): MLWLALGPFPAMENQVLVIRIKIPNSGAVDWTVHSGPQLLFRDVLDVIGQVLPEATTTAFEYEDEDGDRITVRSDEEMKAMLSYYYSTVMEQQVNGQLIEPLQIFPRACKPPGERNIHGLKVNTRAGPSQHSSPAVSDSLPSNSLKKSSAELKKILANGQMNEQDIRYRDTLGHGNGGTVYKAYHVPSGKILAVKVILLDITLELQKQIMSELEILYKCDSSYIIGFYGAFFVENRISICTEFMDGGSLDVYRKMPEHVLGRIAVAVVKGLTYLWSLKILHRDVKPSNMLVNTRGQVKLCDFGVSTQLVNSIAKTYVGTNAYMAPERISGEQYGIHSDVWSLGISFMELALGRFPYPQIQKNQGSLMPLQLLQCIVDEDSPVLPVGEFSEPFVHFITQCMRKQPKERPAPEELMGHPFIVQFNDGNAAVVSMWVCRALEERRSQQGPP

[3] = target: Histone-lysine N-methyltransferase SUV39H2 (Homo sapiens) (UniProt Q9H5I1); settings: at 10 µM
[4] = target: Serine/threonine-protein kinase 16 (Homo sapiens, UniProt O75716); test: Selectivity interaction (KinomeScan (DiscoverX)) EUB0001550a STK16; settings: at 1 µM
[5] = target: T2, Serine/threonine-protein kinase D2 (Homo sapiens) (UniProt Q9BZL6); test: Selectivity interaction (KinomeScan (DiscoverX)) EUB0000695a PRKD2; settings: at 100 nM
T2 sequence (whole entry): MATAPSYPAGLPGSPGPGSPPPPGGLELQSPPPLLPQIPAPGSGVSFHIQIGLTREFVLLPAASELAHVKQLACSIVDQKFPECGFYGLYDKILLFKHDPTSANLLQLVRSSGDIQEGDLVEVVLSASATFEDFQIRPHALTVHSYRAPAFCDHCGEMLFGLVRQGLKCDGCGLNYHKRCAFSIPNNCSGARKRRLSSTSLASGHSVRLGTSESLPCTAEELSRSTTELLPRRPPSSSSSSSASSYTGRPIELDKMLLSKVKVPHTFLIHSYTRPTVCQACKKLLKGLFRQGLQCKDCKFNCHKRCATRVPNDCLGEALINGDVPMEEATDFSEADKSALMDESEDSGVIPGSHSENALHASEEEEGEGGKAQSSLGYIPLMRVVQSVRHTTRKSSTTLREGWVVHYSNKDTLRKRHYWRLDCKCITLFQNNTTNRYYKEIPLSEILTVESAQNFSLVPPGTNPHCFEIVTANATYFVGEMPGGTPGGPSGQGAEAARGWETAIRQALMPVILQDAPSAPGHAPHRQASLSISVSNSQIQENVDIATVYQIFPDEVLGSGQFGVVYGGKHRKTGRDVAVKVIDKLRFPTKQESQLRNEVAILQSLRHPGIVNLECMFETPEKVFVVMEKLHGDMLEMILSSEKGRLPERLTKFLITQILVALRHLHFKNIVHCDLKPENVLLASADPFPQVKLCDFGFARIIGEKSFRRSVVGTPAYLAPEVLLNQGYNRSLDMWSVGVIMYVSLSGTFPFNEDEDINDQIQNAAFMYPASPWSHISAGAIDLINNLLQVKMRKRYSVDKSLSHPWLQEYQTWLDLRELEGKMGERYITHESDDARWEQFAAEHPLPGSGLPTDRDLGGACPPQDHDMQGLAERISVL

[6] = target: Ribosomal protein S6 kinase alpha-4 (Homo sapiens) (UniProt O75676); test: Selectivity interaction (KinomeScan (DiscoverX)) EUB0000229b RPS6KA4; settings: at 10 µM
[7] = target: T3, Serine/threonine-protein kinase Nek5 (Homo sapiens) (UniProt Q6P3R8); test: Selectivity interaction (KinomeScan (DiscoverX)) EUB0000045b NEK5
T3 sequence (whole entry): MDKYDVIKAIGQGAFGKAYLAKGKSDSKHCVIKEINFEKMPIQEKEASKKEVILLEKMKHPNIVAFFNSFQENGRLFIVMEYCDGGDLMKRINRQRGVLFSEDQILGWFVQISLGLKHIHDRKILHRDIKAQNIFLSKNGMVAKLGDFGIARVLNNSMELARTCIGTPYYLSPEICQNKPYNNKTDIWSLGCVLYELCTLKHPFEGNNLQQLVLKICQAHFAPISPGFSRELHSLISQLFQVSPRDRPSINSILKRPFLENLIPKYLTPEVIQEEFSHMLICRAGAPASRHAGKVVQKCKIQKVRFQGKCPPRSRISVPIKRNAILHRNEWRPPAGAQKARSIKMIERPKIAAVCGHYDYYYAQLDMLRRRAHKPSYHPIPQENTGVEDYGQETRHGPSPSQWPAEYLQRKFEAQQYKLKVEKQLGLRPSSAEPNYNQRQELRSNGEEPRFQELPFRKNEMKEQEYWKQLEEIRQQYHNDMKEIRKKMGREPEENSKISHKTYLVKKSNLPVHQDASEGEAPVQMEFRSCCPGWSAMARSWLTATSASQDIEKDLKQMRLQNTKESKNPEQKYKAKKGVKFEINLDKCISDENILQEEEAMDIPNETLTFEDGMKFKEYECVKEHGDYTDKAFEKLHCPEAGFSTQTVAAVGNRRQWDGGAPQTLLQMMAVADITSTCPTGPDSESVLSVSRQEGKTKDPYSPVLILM

[8] = target: T4, Mitogen-activated protein kinase 12 (Homo sapiens) (UniProt P53778); test: Selectivity interaction (KinomeScan (DiscoverX)) EUB0000618a MAPK12; settings: at 10 µM
T4 sequence (whole entry): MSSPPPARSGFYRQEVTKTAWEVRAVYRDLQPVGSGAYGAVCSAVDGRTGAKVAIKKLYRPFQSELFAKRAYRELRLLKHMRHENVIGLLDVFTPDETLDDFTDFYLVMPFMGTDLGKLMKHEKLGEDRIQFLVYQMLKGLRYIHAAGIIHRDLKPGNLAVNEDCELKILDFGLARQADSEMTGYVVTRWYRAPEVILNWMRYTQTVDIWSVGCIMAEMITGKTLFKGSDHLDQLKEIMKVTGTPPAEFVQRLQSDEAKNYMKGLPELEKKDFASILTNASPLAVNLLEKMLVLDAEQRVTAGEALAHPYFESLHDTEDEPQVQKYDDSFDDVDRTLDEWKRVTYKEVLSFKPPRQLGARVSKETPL

Chain of Phosphatidylinositol 4,5-bisphosphate 3-kinase catalytic subunit beta isoform (Homo sapiens) (P42338 whole entry, looked up, canonical isoform): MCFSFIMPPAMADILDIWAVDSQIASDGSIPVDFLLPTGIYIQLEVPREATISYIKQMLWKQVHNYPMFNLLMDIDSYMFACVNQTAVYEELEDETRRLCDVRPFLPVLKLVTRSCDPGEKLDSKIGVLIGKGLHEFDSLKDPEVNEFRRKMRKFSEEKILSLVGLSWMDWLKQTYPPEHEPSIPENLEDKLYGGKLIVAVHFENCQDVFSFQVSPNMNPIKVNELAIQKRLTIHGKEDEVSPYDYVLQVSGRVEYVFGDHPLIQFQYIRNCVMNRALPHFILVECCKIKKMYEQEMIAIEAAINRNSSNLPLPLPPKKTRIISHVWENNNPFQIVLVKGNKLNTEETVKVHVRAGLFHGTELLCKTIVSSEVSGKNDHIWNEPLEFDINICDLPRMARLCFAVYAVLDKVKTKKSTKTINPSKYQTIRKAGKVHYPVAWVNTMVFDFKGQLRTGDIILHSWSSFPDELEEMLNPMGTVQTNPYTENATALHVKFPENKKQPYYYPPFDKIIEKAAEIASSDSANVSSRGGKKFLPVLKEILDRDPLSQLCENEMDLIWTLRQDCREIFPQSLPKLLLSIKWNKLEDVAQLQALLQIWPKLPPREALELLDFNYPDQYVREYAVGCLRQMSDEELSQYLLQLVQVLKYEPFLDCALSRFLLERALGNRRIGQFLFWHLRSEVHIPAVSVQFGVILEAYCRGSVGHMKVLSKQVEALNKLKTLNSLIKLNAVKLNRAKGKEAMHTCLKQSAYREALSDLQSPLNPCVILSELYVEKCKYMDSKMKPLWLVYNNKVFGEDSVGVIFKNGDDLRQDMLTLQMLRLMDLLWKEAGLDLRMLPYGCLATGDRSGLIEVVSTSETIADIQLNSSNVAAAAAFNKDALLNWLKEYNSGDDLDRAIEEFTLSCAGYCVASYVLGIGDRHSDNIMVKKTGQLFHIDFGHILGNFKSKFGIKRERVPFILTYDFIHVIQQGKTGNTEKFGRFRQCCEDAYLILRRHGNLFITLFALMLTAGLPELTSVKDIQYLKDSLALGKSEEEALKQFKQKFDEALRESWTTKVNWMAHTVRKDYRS
Chain of Serine/threonine-protein kinase 16 (O75716 whole entry): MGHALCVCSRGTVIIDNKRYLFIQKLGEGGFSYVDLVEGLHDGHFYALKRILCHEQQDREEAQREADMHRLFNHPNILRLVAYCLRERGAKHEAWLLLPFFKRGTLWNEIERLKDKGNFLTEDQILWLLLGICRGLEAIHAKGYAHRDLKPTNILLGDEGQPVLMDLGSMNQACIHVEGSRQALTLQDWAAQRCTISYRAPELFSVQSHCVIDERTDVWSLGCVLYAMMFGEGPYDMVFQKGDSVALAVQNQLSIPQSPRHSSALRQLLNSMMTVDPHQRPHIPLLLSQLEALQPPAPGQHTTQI
Chain of Ribosomal protein S6 kinase alpha-4 (Homo sapiens) (O75676 whole entry, looked up): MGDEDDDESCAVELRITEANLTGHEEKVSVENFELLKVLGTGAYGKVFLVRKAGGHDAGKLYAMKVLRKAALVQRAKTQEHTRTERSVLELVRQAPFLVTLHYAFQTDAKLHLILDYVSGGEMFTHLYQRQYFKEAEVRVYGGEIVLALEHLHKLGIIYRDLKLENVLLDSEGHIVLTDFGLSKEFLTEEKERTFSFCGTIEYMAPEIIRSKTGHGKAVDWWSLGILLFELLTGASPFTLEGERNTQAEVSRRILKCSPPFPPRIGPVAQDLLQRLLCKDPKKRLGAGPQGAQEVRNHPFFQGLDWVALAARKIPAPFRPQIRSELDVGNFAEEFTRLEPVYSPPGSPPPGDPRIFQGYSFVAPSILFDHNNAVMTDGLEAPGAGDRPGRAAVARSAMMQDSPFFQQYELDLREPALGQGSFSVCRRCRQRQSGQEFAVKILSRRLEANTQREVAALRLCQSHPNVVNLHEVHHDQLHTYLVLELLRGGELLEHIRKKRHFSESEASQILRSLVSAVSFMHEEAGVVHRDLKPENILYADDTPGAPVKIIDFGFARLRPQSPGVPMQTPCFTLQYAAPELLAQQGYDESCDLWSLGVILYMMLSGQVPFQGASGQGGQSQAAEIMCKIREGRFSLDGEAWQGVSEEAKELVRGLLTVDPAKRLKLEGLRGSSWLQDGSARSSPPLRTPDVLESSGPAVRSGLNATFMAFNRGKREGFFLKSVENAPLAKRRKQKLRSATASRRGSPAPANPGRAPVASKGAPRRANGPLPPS
Chain of Histone-lysine N-methyltransferase SUV39H2 (Homo sapiens) (Q9H5I1 whole entry): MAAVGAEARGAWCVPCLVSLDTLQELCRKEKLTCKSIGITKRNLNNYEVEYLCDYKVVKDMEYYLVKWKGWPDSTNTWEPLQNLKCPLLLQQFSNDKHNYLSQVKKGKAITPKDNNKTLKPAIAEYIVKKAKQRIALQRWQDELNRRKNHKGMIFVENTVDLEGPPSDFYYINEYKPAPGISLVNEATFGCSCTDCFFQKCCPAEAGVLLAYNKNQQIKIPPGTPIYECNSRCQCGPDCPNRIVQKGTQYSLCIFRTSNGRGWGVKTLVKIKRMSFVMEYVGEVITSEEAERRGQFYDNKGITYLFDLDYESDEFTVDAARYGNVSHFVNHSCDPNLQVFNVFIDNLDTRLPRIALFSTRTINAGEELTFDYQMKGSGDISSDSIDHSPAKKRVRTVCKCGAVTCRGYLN

Structure (SMILES): CN(C)C/C=C/C(=O)Nc1ccc(C(=O)N2CCCC(Nc3ncc(Cl)c(-c4c[nH]c5ccccc45)n3)C2)cc1 (stereo not drawn)
% of control [1]: 100%

% of inhibition ([2]; at 0.01 µM): 4.3% | % of inhibition ([2]; at 0.04 µM): -11.1% | % of inhibition ([2]; at 0.2 µM): -18.3% | % of inhibition ([2]; at 1 µM): -7.3% | % of inhibition ([2]; at 5 µM): -18.8%
Structure (SMILES): CC[C@@H]1[C@H](F)C(=O)N[C@@H]1COc1nccc2cc(C(N)=O)c(OC)cc12 [ZIMLOVISERTIB]

% activity [3]: > 90%
Structure (SMILES): CNCCN1CCC(c2cc(CN(C)C(=O)c3cccc(Oc4ccccc4)c3)ccn2)CC1

% of control [4]: 14%
Structure (SMILES): CN(C)CC#Cc1ccc2[nH]c3c(c2c1)-c1nc(N)ncc1CCC3

Structure (SMILES): Cc1cc(F)c(C(=O)Nc2cccc(-c3nncn3C(C)C)n2)cc1-n1cnc(C2CC2)c1
% of control [5]: 58%

Structure (SMILES): COc1cc(N(C)c2ccnc3ccc(C(F)(F)F)cc23)cc(OC)c1OC
% binding [6]: 72%

Structure (SMILES): C=CC(=O)Nc1cc(-n2c(=O)ccc3cnc4ccc(-c5ccc(NS(C)(=O)=O)cc5)cc4c32)ccc1C
% of control ([7]; at 1 µM): 100% | % of control ([7]; at 10 µM): 84%

Structure (SMILES): O[C@H]1CC[C@H](Nc2ncc3nc(Nc4c(F)cc(F)cc4F)n([C@H]4CCOC4)c3n2)CC1
% of control [8]: 80%
